Measured values published in paper PMC12024912, “Druggability Studies of Benzene Sulfonamide Substituted Diarylamide (E3) as a Novel Diuretic” (Biomedicines, 2025).
pIC50: −log10 of the molar value. Read-outs that look alike come from different tables or passages of the source.

Experiments:
[1] = biological target: T1, UT-B (Homo sapiens, UniProt Q13336); experiment: Erythrocyte lysis assay for UT-B inhibition, human erythrocytes; type: cell-based
T1 construct: endogenous in cells; host or cells: erythrocytes from healthy adult male volunteers
T1 sequence (Q13336 1-389): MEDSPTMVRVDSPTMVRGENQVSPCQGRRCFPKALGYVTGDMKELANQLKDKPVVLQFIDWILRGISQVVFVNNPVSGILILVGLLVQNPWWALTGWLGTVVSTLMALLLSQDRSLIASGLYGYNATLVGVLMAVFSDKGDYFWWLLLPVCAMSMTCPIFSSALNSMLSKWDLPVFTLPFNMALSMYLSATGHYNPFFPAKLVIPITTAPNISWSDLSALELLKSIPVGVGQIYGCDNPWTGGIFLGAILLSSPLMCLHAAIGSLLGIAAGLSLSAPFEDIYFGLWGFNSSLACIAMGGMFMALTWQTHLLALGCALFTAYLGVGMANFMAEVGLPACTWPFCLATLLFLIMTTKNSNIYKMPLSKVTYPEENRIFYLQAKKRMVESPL
Procedure: The erythrocyte lysis assay was modified from a method described previously. Erythrocytes obtained from veins were diluted to a hematocrit value of 2% in hyperosmolar PBS containing 1.25 mol/L urea and 5 mmol/L glucose and incubated at r.t. for 2 h. Then, 99 μL erythrocyte suspension from a reservoir was added to each well of a 96-well round-bottom microplate, then 1 μL of the testing compound (500, 125, 31.25, 7.81, 1.95, 0.488, 0.122, 0.031, 0.0076 μmol/L dissolved in DMSO) was added to erythrocyte suspension and shook it up with microoscillator for 1 min. Following 5 min incubation, 20 μL erythrocyte suspension was transferred into 96-well black microplates preloaded with 180 μL isotonic PBS (10 mM, urea-free). Erythrocyte lysis was monitored at 710 nm optical density (OD710) for 6 min, with lysis rates calculated using control values from the same plate as Equation (1):Lysis (%) = 100 × (Aneg − Atest)/(Aneg − Apos)(1) where Atest is the absorbance value from the test well, Aneg is from a negative no-lysis control well, and Apos is from a positive full-lysis control.

[2] = Blood stability, rabbit; type: in vitro ADME; conditions: plasma, n=3
Procedure: (§1) Plasma from mice, rats, rabbits, and humans was obtained from blood after centrifugation at 3000 r/min for 10 min. Simulated gastric fluid (SGF, pH = 1, containing pepsin) and simulated intestinal fluid (SIF, pH = 6.8, containing trypsin) were configured previously in the experiments. SD rats and mice were collected, and after removing the mucus layer from the small intestine and colon, 20 times the volume of liquid bacterial culture medium was added. An intestinal microbiota suspension was obtained after anaerobic cultivation on a shaking table at 37 °C for 12 h. In the aforementioned systems, E3 was added at a final concentration of 1 μmol/L at 37 °C for different incubation times (0, 10, 20, 30, 60, 120, and 240 min). In liver metabolic stability assays, E3 was incubated with liver microsomes or liver homogenate from mice or rats for 60 min at 37 °C. The stop solution, 5 ng/mL tolbutamide (internal standard, IS) in acetonitrile, was added to stop the metabolic process. Post-centrifugation (18,000× g, 10 min, 4 °C), supernatants were subjected to liquid chromatography–tandem mass spectrometry (LC–MS/MS). Analyte-to-IS peak area ratios quantified residual percentages via Equation (2):Remaining% = (E3peak area/ISpeak area at different time)/(E3peak area/ISpeak area at 0 min) × 100%.(2)

[3] = Intestinal microbiota stability, mouse; type: in vitro ADME
Procedure: as §1

[4] = Intestinal microbiota stability, rat; type: in vitro ADME; conditions: Sprague-Dawley
Procedure: as §1

[5] = Liver microsome metabolic stability, rat; type: in vitro ADME; conditions: 60 min incubation, 37 °C
Procedure: as §1

[6] = biological target: T2, hERG K+ channel (Homo sapiens, UniProt Q12809); experiment: hERG K+ channel tail current, QPatch, CHO-hERG cells; type: cell-based
T2 construct: expressed in transfected cells; host or cells: CHO-hERG cells
T2 sequence (Q12809 whole entry): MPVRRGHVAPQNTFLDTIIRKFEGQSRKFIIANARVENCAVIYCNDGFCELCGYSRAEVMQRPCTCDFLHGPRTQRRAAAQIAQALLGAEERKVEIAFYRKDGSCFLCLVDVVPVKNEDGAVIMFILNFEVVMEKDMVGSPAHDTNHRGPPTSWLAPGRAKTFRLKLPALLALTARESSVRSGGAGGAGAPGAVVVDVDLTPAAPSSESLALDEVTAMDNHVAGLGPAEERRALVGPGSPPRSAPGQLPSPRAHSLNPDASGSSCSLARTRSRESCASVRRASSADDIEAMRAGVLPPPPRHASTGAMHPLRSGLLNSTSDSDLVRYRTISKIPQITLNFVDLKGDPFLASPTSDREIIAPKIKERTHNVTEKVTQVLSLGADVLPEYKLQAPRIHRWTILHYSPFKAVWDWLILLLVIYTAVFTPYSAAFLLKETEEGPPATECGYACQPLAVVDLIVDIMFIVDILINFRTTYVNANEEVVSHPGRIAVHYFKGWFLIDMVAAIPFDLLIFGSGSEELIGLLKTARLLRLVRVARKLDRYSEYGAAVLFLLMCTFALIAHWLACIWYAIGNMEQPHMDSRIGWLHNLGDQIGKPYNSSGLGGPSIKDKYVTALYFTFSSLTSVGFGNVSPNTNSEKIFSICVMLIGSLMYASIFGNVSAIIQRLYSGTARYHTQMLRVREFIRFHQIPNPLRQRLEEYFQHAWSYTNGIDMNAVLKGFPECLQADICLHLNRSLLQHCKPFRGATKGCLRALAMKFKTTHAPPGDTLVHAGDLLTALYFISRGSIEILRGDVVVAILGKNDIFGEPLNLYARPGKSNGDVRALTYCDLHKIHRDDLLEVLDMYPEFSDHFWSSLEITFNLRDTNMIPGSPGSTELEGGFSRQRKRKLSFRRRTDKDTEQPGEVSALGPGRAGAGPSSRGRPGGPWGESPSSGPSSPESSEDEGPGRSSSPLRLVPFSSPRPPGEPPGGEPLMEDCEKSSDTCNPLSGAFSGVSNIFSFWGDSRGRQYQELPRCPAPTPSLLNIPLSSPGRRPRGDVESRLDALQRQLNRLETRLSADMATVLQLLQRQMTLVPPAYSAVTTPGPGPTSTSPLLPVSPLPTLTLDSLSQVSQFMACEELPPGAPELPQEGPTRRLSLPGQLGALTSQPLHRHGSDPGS
Procedure: CHO-hERG cells were maintained in F12 medium (Gibco, Thermo Fisher Scientific, Waltham, MA, USA) containing 10% FBS and 0.5 mg/mL Geneticin (Invitrogen, Thermo Fisher Scientific, Waltham, MA, USA) under standard culture conditions (37 °C, 5% CO2). Cells were seeded 2 days prior to reaching 70% confluency, then washed with PBS and detached using 5 mL Detachin (Genlantis, San Diego, CA, USA) at 37 °C for 2~3 min. Cell suspensions (2 × 10^6 cells/mL in F12) were prepared and equilibrated for 20 min in the QStir station of the QPatch-16 system (Sophion Bioscience, Copenhagen, Denmark) before electrophysiological recordings.
hERG channel tail currents were assessed using the QPatch automated platform. Recording solutions contained (mM): Internal: KCl 120, CaCl2 5.374, MgCl2 1.75, KOH 31.25, EGTA 10, HEPES 10, Na2ATP 4 (pH 7.2); External: NaCl 145, KCl 4, MgCl2 1, CaCl2 2, HEPES 10, glucose 10 (pH 7.4)
Cells were voltage-clamped at −80 mV with series resistance monitored during −100 mV hyperpolarization. The stimulation protocol included: (1) 200 ms baseline at −50 mV; (2) 2s depolarization to +20 mV; and (3) tail current recording at −50 mV. Signals were acquired at 2 kHz through the integrated Bessel filter. Concentration-response relationships were established by sequential compound applications bracketed with saline controls for normalization.

[7] = system: mice; experiment: Mouse sperm malformation assay; conditions: mouse, in vivo, po, 2000 mg/kg/day
Procedure: Male mice were randomly divided into three groups: control group (0.5% CMC-Na), E3 2000 mg/kg group, and positive group (50 mg/kg cyclophosphamide (CP), administered via intraperitoneal injection). E3 and the control group were administered once daily by intragastric gavage. All mice received treatment for 5 consecutive days. After the initial dosing period, […], the mice were euthanized, and evaluation of sperm parameters was performed as follows:
Caudal epididymides were dissected into fragments in physiological saline and incubated (37 °C, 5% CO2, 10 min). Spermatozoa were isolated through nylon mesh filtration. Semen parameters were quantified using computer-assisted semen analysis (CASA). Eosin-stained smears (20 μL sperm suspension) were analyzed to examine sperm morphology. […] Sperm shape abnormalities, such as banana, headless, without a hook, amorphous, double-tailed, and fat head, were identified and counted. In addition, the testis was reserved for morphological analysis. The spermatogenesis was graded from 1 to 10 using the Johnsen score.

**Q.** Which “maximum inhibition rate, human cells” value ([1]; erythrocyte lysis assay) does the source give for `CC(=O)c1ccc(C(=O)Nc2cccc(NS(=O)(=O)c3ccccc3)c2)o1` [Compound E3, 5-acetyl-N-(3-(phenylsulfonamido)phenyl)furan-2-carboxamide] here?
**A.** approximately 100%

**Q.** What about the pIC50 ([1]; red blood cell lysis assay, read-out: IC50 for UT-B-promoted urea transport, humans) of the same compound?
**A.** 7.60

**Q.** And the remaining at 1 μmol/L [2]?
**A.** 35.7%

**Q.** And the remaining at 4 h, 1 μmol/L ([3]; colon microbiota suspension, n=3, read-out: Mouse colon microbiota (remaining %))?
**A.** 89.3%

**Q.** What about the remaining at 4 h, 1 μmol/L ([3]; small intestine microbiota suspension, n=3, read-out: Mouse small intestine microbiota (remaining %)) of the same compound?
**A.** 87.3%

**Q.** What about the remaining at 1 μmol/L ([4]; colon microbiota suspension, n=3, read-out: Rat colon microbiota (remaining %)) of the same compound?
**A.** 82.3%

**Q.** What about the remaining at 1 μmol/L ([4]; small intestine microbiota suspension, n=3, read-out: Rat small intestine microbiota (remaining %)) of the same compound?
**A.** 87.4%

**Q.** And the “remaining amount, rat liver microsomes” value [5]?
**A.** 61.1%

**Q.** What about the pIC50 [6] of the same compound?
**A.** < 4.48

**Q.** And the “testicular tissue, H&E staining” value [7]?
**A.** no significant differences
